Measurements as given in ChEMBL document CHEMBL3045088, “Synthesis and cytotoxic activity of genistein derivatives” (2010).

What was measured:
Assay type in all cases: functional
SGC-7901 = test: Growth inhibition of Homo sapiens (human) SGC7901 cells by MTT assay
HL-60 = test: Growth inhibition of Homo sapiens (human) HL60 cells by MTT assay
HT-29 = test: Growth inhibition of Homo sapiens (human) HT-29 cells by MTT assay

Question: `CCCCCCCCCCOc1ccc(-c2coc3cc(OC(F)F)cc(OCCCCCCCCCC)c3c2=O)cc1` [4',5-DI-N-DECOXY-7-GEM-DIFLUOROMETHYLENATED GENISTEIN] was tested. Which GI (SGC-7901) did it give?
Answer: 3.3 µM

Question: And the GI (HL-60)?
Answer: 1.63 µM

Question: What about the GI (HT-29) of the same compound?
Answer: 14.26 µM

Question: With `CCCCCCCOc1ccc(-c2coc3cc(OC(F)F)cc(OCCCCCCC)c3c2=O)cc1` [4',5-DI-N-HEPTOXY-7-GEM-DIFLUOROMETHYLENATED GENISTEIN] as the compound, how does the GI (SGC-7901) read?
Answer: 3.39 µM

Question: What about the GI (HL-60) of the same compound?
Answer: 1.41 µM

Question: What about the GI (HT-29) of the same compound?
Answer: 5.25 µM

Question: How did the GI (SGC-7901) turn out when `CCCCCCCCOc1ccc(-c2coc3cc(OC(F)F)cc(OCCCCCCCC)c3c2=O)cc1` [4',5-DI-N-OCTOXY-7-GEM-DIFLUOROMETHYLENATED GENISTEIN] was run?
Answer: 1.64 µM

Question: And the GI (HL-60)?
Answer: 0.47 µM

Question: What about the GI (HT-29) of the same compound?
Answer: 1.86 µM

Question: How did the GI (SGC-7901) turn out when `CCCOc1ccc(-c2coc3cc(OC(F)F)cc(OCCC)c3c2=O)cc1` [4',5-DI-N-PROPOXY-7-GEM-DIFLUOROMETHYLENATED GENISTEIN] was run?
Answer: 2.15 µM

Question: And the GI (HL-60)?
Answer: 0.54 µM

Question: And the GI (HT-29)?
Answer: 2.5 µM

Question: With `O=c1c(-c2ccc(OCc3ccccc3)cc2)coc2cc(OC(F)F)cc(OCc3ccccc3)c12` [4',5-DIBENZYLOXY-7-GEM-DIFLUOROMETHYLENATED GENISTEIN] as the compound, how does the GI (SGC-7901) read?
Answer: 4.24 µM

Question: And the GI (HL-60)?
Answer: 1.29 µM

Question: And the GI (HT-29)?
Answer: 2.82 µM

Question: Which GI (SGC-7901) does the source give for `CCOc1ccc(-c2coc3cc(OC(F)F)cc(OCC)c3c2=O)cc1` [4',5-DIETHOXY-7-GEM-DIFLUOROMETHYLENATED GENISTEIN] here?
Answer: 5.51 µM

Question: And the GI (HL-60)?
Answer: 1.75 µM

Question: What about the GI (HT-29) of the same compound?
Answer: 11.2 µM

Question: With `COc1ccc(-c2coc3cc(OC(F)F)cc(OC)c3c2=O)cc1` [4',5-DIMETHOXY-7-GEM-DIFLUOROMETHYLENATED GENISTEIN] as the compound, how does the GI (SGC-7901) read?
Answer: 6.41 µM

Question: What about the GI (HL-60) of the same compound?
Answer: 4.61 µM

Question: And the GI (HT-29)?
Answer: 9.83 µM

Question: How did the GI (SGC-7901) turn out when `O=c1c(-c2ccc(OC(F)F)cc2)coc2cc(OC(F)F)cc(O)c12` [4',7-DI-GEM-DIFLUOROMETHYLENATED GENISTEIN] was run?
Answer: 5.54 µM

Question: And the GI (HL-60)?
Answer: 5.5 µM

Question: What about the GI (HT-29) of the same compound?
Answer: 5.35 µM

Question: Which results are given for `CC(=O)Oc1ccc(-c2coc3cc(OC(C)=O)cc(O)c3c2=O)cc1` [4',7-DIACETOXY-5-HYDROXYGENISTEIN]?
Answer: GI (SGC-7901): 11.24 µM; GI (HL-60): 5.86 µM; GI (HT-29): 19.4 µM

Question: How did the GI (SGC-7901) turn out when `C=CCOc1ccc(-c2coc3cc(OCC=C)cc(O)c3c2=O)cc1` [4',7-DIALLYLOXY-5-HYDROXYGENISTEIN] was run?
Answer: 6.51 µM

Question: And the GI (HL-60)?
Answer: 3.44 µM

Question: What about the GI (HT-29) of the same compound?
Answer: 14.2 µM

Question: Which GI (SGC-7901) does the source give for `CCCCCCCCCCOc1ccc(-c2coc3cc(OCCCCCCCCCC)cc(O)c3c2=O)cc1` [4',7-DIDECYLOXY-5-HYDROXYGENISTEIN] here?
Answer: 4.27 µM

Question: And the GI (HL-60)?
Answer: 3.09 µM

Question: What about the GI (HT-29) of the same compound?
Answer: 11.6 µM

Question: What does the source list for `COc1ccc(-c2coc3cc(OC)cc(O)c3c2=O)cc1` [4',7-DIMETHOXY-5-HYDROXYGENISTEIN]?
Answer: GI (SGC-7901): 7.78 µM; GI (HL-60): 5.14 µM; GI (HT-29): 4.18 µM

Question: Which results are given for `CCCCCCCCOc1ccc(-c2coc3cc(OCCCCCCCC)cc(O)c3c2=O)cc1` [4',7-DIOCTYLOXY-5-HYDROXYGENISTEIN]?
Answer: GI (SGC-7901): 4.82 µM; GI (HL-60): 1.62 µM; GI (HT-29): 10.8 µM

Question: How did the GI (SGC-7901) turn out when `CC(=O)Oc1cc(O)c2c(=O)c(-c3ccc(O)cc3)coc2c1` [7-ACETOXY-4',5-DIHYDROXYGENISTEIN] was run?
Answer: 8.11 µM

Question: What about the GI (HL-60) of the same compound?
Answer: 4.95 µM

Question: What about the GI (HT-29) of the same compound?
Answer: 4.21 µM

Question: Which GI (SGC-7901) does the source give for `O=c1c(-c2ccc(O)cc2)coc2cc(OC(F)F)cc(O)c12` [7-GEM-DIFLUOROMETHYLENATED GENISTEIN] here?
Answer: 4.59 µM

Question: What about the GI (HL-60) of the same compound?
Answer: 3.53 µM

Question: What about the GI (HT-29) of the same compound?
Answer: 4.56 µM

Question: What does the source list for `O=c1c(-c2ccc(O)cc2)coc2cc(O)cc(O)c12` [GENISTEIN]?
Answer: GI (SGC-7901): 5.78 µM; GI (HL-60): 4.82 µM; GI (HT-29): 4.11 µM

Question: Which GI (SGC-7901) does the source give for `COc1cc(O)c2c(=O)c(-c3ccc(O)cc3)coc2c1` [PRUNETIN] here?
Answer: 3.94 µM

Question: And the GI (HL-60)?
Answer: 4.35 µM

Question: And the GI (HT-29)?
Answer: 5.11 µM
